Measurements reported in ChEMBL document CHEMBL3046894, “Synthesis and Herbicidal Activity of Pyrimidinyl Salicylic and Thiosalicylic Acids” (J Pestic Sci, 1996).
Active and inactive are the calls of the source. The rule behind the calls is not given here.

Columns and labels:
Assay type in all cases: functional, organism-based
Echinochloa crus-galli [1] = test: Pre-emergence herbicidal activity against Echinochloa crus-galli (barnyard grass) assessed as growth inhibition at 25 g a.i/10 a
Amaranthus retroflexus [2] = test: Pre-emergence herbicidal activity against Amaranthus retroflexus assessed as growth inhibition at 25 g a.i/10 a
Cyperus iria [3] = test: Post-emergence herbicidal activity against Cyperus iria assessed as growth inhibition at 25 g a.i/10 a applied 11 days after germination as foliar spray
Amaranthus retroflexus [4] = test: Post-emergence herbicidal activity against Amaranthus retroflexus assessed as growth inhibition at 25 g a.i/10 a applied 11 days after germination as foliar spray
Persicaria nodosa [5] = test: Pre-emergence herbicidal activity against Persicaria nodosa assessed as growth inhibition at 25 g a.i/10 a
Chenopodium album [6] = test: Pre-emergence herbicidal activity against Chenopodium album assessed as growth inhibition at 25 g a.i/10 a
Digitaria sanguinalis [7] = test: Post-emergence herbicidal activity against Digitaria sanguinalis (hairy crabgrass) assessed as growth inhibition at 25 g a.i/10 a applied 11 days after germination as foliar spray
Digitaria sanguinalis [8] = test: Pre-emergence herbicidal activity against Digitaria sanguinalis (hairy crabgrass) assessed as growth inhibition at 25 g a.i/10 a
Chenopodium album [9] = test: Post-emergence herbicidal activity against Chenopodium album assessed as growth inhibition at 25 g a.i/10 a applied 11 days after germination as foliar spray
Cyperus iria [10] = test: Pre-emergence herbicidal activity against Cyperus iria assessed as growth inhibition at 25 g a.i/10 a
Echinochloa crus-galli [11] = test: Post-emergence herbicidal activity against Echinochloa crus-galli (barnyard grass) assessed as growth inhibition at 25 g a.i/10 a applied 11 days after germination as foliar spray
Persicaria nodosa [12] = test: Post-emergence herbicidal activity against Persicaria nodosa assessed as growth inhibition at 25 g a.i/10 a applied 11 days after germination as foliar spray

Row | Structure (SMILES) | growth inhibition (GI) (Echinochloa crus-galli [1]) | growth inhibition (GI) (Amaranthus retroflexus [2]) | growth inhibition (GI) (Cyperus iria [3]) | growth inhibition (GI) (Amaranthus retroflexus [4]) | growth inhibition (GI) (Persicaria nodosa [5]) | growth inhibition (GI) (Chenopodium album [6]) | growth inhibition (GI) (Digitaria sanguinalis [7]) | growth inhibition (GI) (Digitaria sanguinalis [8]) | growth inhibition (GI) (Chenopodium album [9]) | growth inhibition (GI) (Cyperus iria [10]) | growth inhibition (GI) (Echinochloa crus-galli [11]) | growth inhibition (GI) (Persicaria nodosa [12])
1 | COc1cc(OC)nc(Oc2ccc(Cl)cc2C(=O)O)n1 | inactive | Active | Active | Active | inactive | Active | inactive | inactive | Active | inactive | inactive | inactive
2 | COc1cc(OC)nc([S+]([O-])c2cccc(Cl)c2C(=O)O)n1 (stereo not given) | inactive | Active | Active | Active | inactive | Active | inactive | Active | Active | Active | Active | Active
3 | CCCOc1cccc(Oc2nc(OC)cc(OC)n2)c1C(=O)O | Active | Active | Active | Active | Active | Active | Active | Active | Active | Active | Active | Active
4 | COc1cc(OC)nc(Oc2cccc(C(C)=O)c2C(=O)O)n1 | Active | Active | Active | Active | Active | Active | Active | Active | Active | Active | Active | Active
5 | COc1cc(OC)nc(Oc2ccc(F)cc2C(=O)O)n1 | Active | Active | Active | Active | Active | Active | inactive | Active | Active | Active | Active | Active
6 | CCCSc1cccc(Oc2nc(OC)cc(OC)n2)c1C(=O)O | inactive | inactive | inactive | Active | inactive | inactive | inactive | inactive | inactive | inactive | inactive | Active
7 | CCOCCOc1cccc(Oc2nc(OC)cc(OC)n2)c1C(=O)O | Active | Active | Active | Active | Active | Active | Active | Active | Active | Active | Active | Active
8 | COc1cc(OC)nc(Nc2cccc(Cl)c2C(=O)O)n1 | inactive | inactive | inactive | Active | inactive | inactive | inactive | inactive | inactive | inactive | inactive | inactive
9 | COc1cc(OC)nc(Oc2ccc(-n3cccc3)cc2C(=O)O)n1 | inactive | inactive | Active | Active | inactive | inactive | Active | inactive | inactive | inactive | Active | Active
10 | COc1cc(OC)nc(Oc2cccc(C(=O)c3ccccc3)c2C(=O)O)n1 | inactive | Active | Active | Active | inactive | Active | inactive | inactive | Active | Active | inactive | Active
11 | COc1cc(OC)nc(Oc2ccc(OC(C)C)cc2C(=O)O)n1 | inactive | inactive | Active | inactive | inactive | inactive | inactive | inactive | inactive | inactive | Active | Active
12 | COc1cc(OC)nc(Oc2c(Cl)cccc2C(=O)O)n1 | – | – | Active | Active | – | – | inactive | – | inactive | – | inactive | Active
13 | CCSc1cccc(Oc2nc(OC)cc(OC)n2)c1C(=O)O | inactive | Active | Active | Active | inactive | inactive | inactive | inactive | Active | inactive | Active | Active
14 | COc1cc(OC)nc(Oc2ccc(C)cc2C(=O)O)n1 | inactive | Active | inactive | Active | inactive | Active | inactive | inactive | inactive | Active | Active | Active
15 | COc1cc(OC)nc(Oc2cccc(-n3cccc3)c2C(=O)O)n1 | Active | Active | Active | Active | Active | Active | Active | Active | Active | Active | Active | Active
16 | COc1cc(OC)nc(Oc2ccc(Br)cc2C(=O)O)n1 | inactive | inactive | inactive | inactive | inactive | inactive | inactive | inactive | inactive | inactive | inactive | inactive
17 | CCCc1cccc(Oc2nc(OC)cc(OC)n2)c1C(=O)O | Active | Active | Active | Active | Active | Active | Active | Active | Active | Active | Active | Active
18 | CCCCOc1cccc(Oc2nc(OC)cc(OC)n2)c1C(=O)O | Active | Active | Active | Active | inactive | Active | Active | Active | Active | Active | Active | Active
